We go through 33 substances from patent publication US8258259B2, “Macromolecular compounds having controlled stoichiometry” (Starpharma Pty Limited, priority 2005, dated 2012).

Data set [1] has as its system T cell tropic NL4.3 strain of HIV-1. The data set is described as follows: Antiviral efficacy: MT-2 cells infected with HIV-1 NL4.3, cell viability by MTS after 6 days (IC50). The class given is cell-based. The following applies: for EC50: MT-2 cells infected with HIV-1 NL4.3, 6 days, MTS viability; for anti-HIV activity compared with SPL7013: MT-2 cells, HIV-1 NL4.3, comparison with homogenous surface dendrimer SPL7013 (Table 24). The procedure: MT-2 cells are infected with the T cell tropic NL4.3 strain of HIV-1 in the presence of 6, 5-fold serial concentrations of compound in triplicate wells of a 96 well plate. In the same plate, cells are exposed to the same drug concentrations in the absence of virus to determine the cytotoxic concentrations of the compound. […] Antimicrob Agents Chemother.
After 6 days incubation at 37° C. in a CO2 incubator, cell viability of both virus-infected and uninfected cells is determined by incubating cells for 3-4 hours with 3-(4,5-dimethylthiazol-2-yl)-5-(3-carboxymethoxyphenyl)-2-(4-sulfophenyl)-2H-tetrazolium (MTS) according to manufacturer's instructions (CellTiter 96 AQueous One Solution Cell Proliferation assay (Promega, Madison Wis.)).

Data set [2] in a line: Plasma clearance studies for radiolabelled (tritiated) macromolecules: plasma, urine, faeces and organ tritium after 5 mg/kg intravenous dose. The class given is in vivo. The following applies: rats; for plasma T½: tritiated macromolecule; for % of 3H dose excreted in total urine: urine collected 0-30 hr. The procedure:
Tritiated poly-lysine macromolecules were dissolved in phosphate buffered saline (PBS), pH 7.4) and frozen until required. Rats were intravenously administered 5 mg/kg of macromolecule via an indwelling cannula (implanted in the jugular vein) over 2 min.
Immediately following dosing, a blood sample (t=0) was collected via an indwelling carotid artery cannula and placed in a heparinised eppendorf tube.
Blood samples were then collected at predetermined intervals for the following 30 hr, and the plasma separated. In addition, urine and faeces were collected at 0-8 hr, 8-24 hr and 24-30 hr. At sacrifice (30 hr after the intravenous dose) the major organs (liver, kidneys, spleen, pancreas, heart, lung and brain) were collected and weighed. The tritium content of plasma, urine, faeces and the various tissue samples were determined using validated scintillation assays.

The test system of data set [3] is T cell tropic NL4.3 strain of HIV-1. The following applies: positive control of the assay; Dezzutti et al. 2004; cited from earlier work.

Entries after “also recorded” stand apart in the source; their conditions may differ. Marks after values point to notes of the source that are not given here.

“BHALys[GlyLys]2[Lys]4[Boc]6[ε,ε-COCH2O-3,6-Naph (SO3Na)2]2 [Example 49]” had an EC50 in data set [1] of 2.2 µg/mL.
As to “BHALys[GlyLys]2[Lys]4[COCH2O-3,6-Naph(SO3Na)2]6 [ε,ε-CBz]2 [Example 48]”, in data set [1], the EC50 amounted to 0.13 µg/mL and the “anti-HIV activity compared with SPL7013” value was “considerably more active than SPL7013; also recorded: significantly more active than SPL7013”.
In the case of “BHALys[GlyLys]2[Lys]4[α,α-Boc]2[ε,α-COCH2O-3,6-Naph(SO3Na)2]2[ε,ε-COCH2O-3,6-Naph(SO3Na)2]2 [Example 42]”, the EC50 in data set [1] amounted to 10.6 µg/mL.
Regarding “BHALys[GlyLys]2[Lys]4[α,α-COCH2O-3,6-Naph(SO3Na)2]2[α,ε-COCH2O-3,6-Naph(SO3Na)2]2[ε,α-COC5H12]2[ε,ε-COC5H12]2 [Example 43]”, the EC50 in data set [1] was determined as 0.24 µg/mL.
In data set [1], “BHALys[Lys]2[GlyLys]4[Lys]8[α,α-Boc]4[α,ε-Boc]4[ε,α-COCH2O-3,6-Naph(SO3Na)2]4 [ε,ε-COCH2O-3,6-Naph(SO3Na)2]4 [Example 44]” had an EC50 of 0.33 µg/mL.
In data set [1], “BHALys[Lys]2[GlyLys]4[Lys]8[α,α-COCH2O-3,6-Naph(SO3Na)2]4[α,εCOCH2O-3,6-Naph(SO3Na)2]4[ε,α-COC5H12]4[ε,ε-COC5H12]4 [Example 45]” yielded an EC50 of 0.37 µg/mL.
As to “BHALys[Lys]2[α,ε-Lys][CBz]2[Lys]3 [COCH2O-3,6-Naph(SO3Na)2]6 [Example 46]”, in data set [1], the 50% effective concentration (EC50) was 0.14 µg/mL and the “anti-HIV activity compared with SPL7013” value is recorded as “considerably more active than SPL7013; also recorded: significantly more active than SPL7013”.
The substance “BHALys[Lys]2[α,ε-Lys][COCH2O-3,6-Naph(SO3Na)2]2[Lys]3 [Boc]6 [Example 47]” showed a concentration giving a half-maximal response (EC50) in data set [1] of more than 50 µg/mL.
For the substance “BHALys[Lys]4[Su(NPN)2]8[γ-CO-MTX-α-OtBu]8[COPEG24]8 [Example 60]”, the “plasma T½” value in data set [2] is listed as 3.9 ± 0.1^a h.
For “BHALys[Lys]4[α-CO-4-PhSO3Na]4[ε-COC5H12]4 [Example 31]”, the EC50 in data set [1] turned out to be 344 µg/mL.
For the substance “BHALys[Lys]4[α-COC5H12]4[ε-COCH2O-3,6-Naph(SO3Na)2]4 [Example 30]”, the EC50 in data set [1] is 58.3 µg/mL.
Substance “BHALys[Lys]4[α-COCH2O-3,6-Naph(SO3Na)2]4[ε-COC5H12]4 [Example 29]” came in with an EC50 in data set [1] of 23.8 µg/mL.
Take BHALys[Lys]8[PEG2KD]16 [Example 54]: in data set [2], the “plasma T½” value was determined as 23.90 ± 2.56 h and the “% of 3H dose excreted in total urine” value is on record as 26.0 ± 4.6%.
With BHALys[Lys]8[PEG200]16 [Example 51], in data set [2], the “plasma T½” value is 0.25 ± 0.04 h and the “% of 3H dose excreted in total urine” value turned out to be 82.2 ± 6.4%.
With “BHALys[Lys]8[Su(NPN)2]16 [γ-CO-MTX-α-OtBu]16 [COPEG12]16 [Example 58]”, the “plasma T½” value in data set [2] is reported as 9.0 ± 0.2^a h.
On to “BHALys[Lys]8[Su(NPN)2]16 [γ-CO-MTX-α-OtBu]16 [COPEG24]16 [Example 61]”, for which, in data set [2], the “plasma T½” value was found to be 21.0 ± 1.7 h.
Still for that read-out and setting: for “BHALys[Lys]8[Su(NPN)2]16 [γ-CO-MTX-α-OtBu]16 [COPEG2300]16 [Example 63]” the value was 34.1 ± 1.1 h.
Substance “BHALys[Lys]8[α-CO2PEG3]8[ε-CO-3,5-Ph(SO3Na)2]8 [Example 34]” displayed a concentration for a half-maximal effect (EC50) in data set [1] of 84.5 µg/mL.
In data set [1], “BHALys[Lys]8[α-CO2PEG3]8[ε-CO-4-PhSO3Na]8 [Example 35]” had an EC50 of more than 500 µg/mL.
Consider “BHALys[Lys]8[α-CO-3,5-Ph(SO3Na)2]8[ε-CBz]8 [Example 37]”, for which the concentration giving a half-maximal response (EC50) in data set [1] came to 2 µg/mL.
On the same count and under the same terms, for “BHALys[Lys]8[α-CO-4-Ph(SO3Na)]8[ε-CBz]8 [Example 38]” the value was 2.2 µg/mL.
The same measure, in the same setting: the value for “BHALys[Lys]8[α-COCH2O-3,6-Naph(SO3Na)2]8[ε-CBz]8 [Example 36]” was 3.2 µg/mL.
Turning to BHALys[Lys]16 [PEG2KD]32 [Example 55], in data set [2], the “plasma T½” value is 75.35 ± 9.3 h and the “% of 3H dose excreted in total urine” value turned out to be 3.1 ± 1.9%.
Taken in the same sequence, the figures for BHALys[Lys]16 [PEG200]32 [Example 52] were 0.72 ± 0.03 h and 80.4 ± 13.6%.
For the substance BHALys[Lys]16 [PEG570]32 [Example 53], in data set [2], the “plasma T½” value came out at 9.45 ± 0.42 h and the “% of 3H dose excreted in total urine” value came to 42.9 ± 2.7%.
As to “BHALys[Lys]16 [Su(NPN)2]32 [γ-CO-MTX-α-OtBu]32 [COPEG12]32 [Example 59]”, in data set [2], the “plasma T½” value was determined as 23.7 ± 5.0 h.
Consider “BHALys[Lys]16 [Su(NPN)2]32 [γ-CO-MTX-α-OtBu]32 [COPEG24]32 [Example 62]”, for which the “plasma T½” value in data set [2] was found to be 51.4 ± 2.7 h.
“BHALys[Lys]16 [α-CO-3,5-Ph(SO3Na)2]16[ε-CBz]16 [Example 40]” came in with an EC50 in data set [1] of 3.2 µg/mL.
Still for that read-out and setting: the value for “BHALys[Lys]16 [α-CO-4-Ph(SO3Na)]16 [ε-CBz]16 [Example 41]” was 4.2 µg/mL.
As to “BHALys[Lys]16 [α-COCH2O-3,6-Naph(SO3Na)2]16 [ε-CBz]16 [Example 39]”, the EC50 in data set [1] turned out to be 2.4 µg/mL.
“BHALys[Lys]16[COCH2O-3,6-Naph(SO3Na)2]32 [SPL7013, reference compound]” showed an EC50 in data set [1] of 1.5 µg/mL. Also, the HIV replication entry in data set [3] is given as “inhibits HIV replication”.
In data set [1], “DAH [Lys]8[α-CO-3,5-Ph(SO3Na)2]8[ε-COC5H12]8 [Example 32]” gave an EC50 of 5.8 µg/mL.
On the same count and under the same terms, the value for “DAH [Lys]8[α-COCH2O-3,6-Naph(SO3Na)2]8[ε-COC5H12]8 [Example 33]” was 0.71 µg/mL.

The EC50 is the concentration at which the effect is half-maximal. Read a low EC50 as greater potency.
